The text below walks through data of US9890117B2, “Benzamide compounds and related methods of use” (Northwestern University, priority 2012, dated 2018).

In series [1] the test system is N2a cells. Description: Toxicity monitoring in N2a cells. The format is cell-based. On the procedure: (§1) To assess SIRT2 inhibition activity in cells, an increase in α-tubulin K40 acetylation (α-tubulin is a substrate for SIRT2) in neuronal N2a and in wild type and HD ST141 cell lines was measured. In this bioactivity test, extracts from compound-treated cells were resolved on SDS-PAGE and subjected to Western analysis using primary antibodies specific to K40 acetylated α-tubulin. Trichostatin A (TSA), a potent HDAC inhibitor, was used as a positive control. To normalize the levels of acetylated α-tubulin we used total α-tubulin and GADPH proteins, detected by Western reactive antibodies specific to total α-tubulin and GADPH. […] FIGS. 2A-B show the bioactivity of 61 and 64 in N2a cells at three tested concentrations (10, 25, and 50 μM). Toxicity of the compounds was monitored in both cell lines, and most of them were non-toxic up to 50 μM in a 6 h treatment.

The test system of series [2] is WT st14a cells. Put plainly: Toxicity monitoring in WT st14a cells. The class given is cell-based. The note with it: up to 18 h treatment.
A short description of series [3]: Microsomal stability screen, human. Conditions: 1 μM.
The nature of series [4]: Microsomal stability screen, mouse. The note with it: 1 μM.
The target in series [5] is T1, SIRT2 (Homo sapiens, UniProt Q8IXJ6).
T1 construct: recombinant active enzymes SIRT1, SIRT2, and the catalytically active fragment of SIRT3
T1 sequence (Q8IXJ6 1-389): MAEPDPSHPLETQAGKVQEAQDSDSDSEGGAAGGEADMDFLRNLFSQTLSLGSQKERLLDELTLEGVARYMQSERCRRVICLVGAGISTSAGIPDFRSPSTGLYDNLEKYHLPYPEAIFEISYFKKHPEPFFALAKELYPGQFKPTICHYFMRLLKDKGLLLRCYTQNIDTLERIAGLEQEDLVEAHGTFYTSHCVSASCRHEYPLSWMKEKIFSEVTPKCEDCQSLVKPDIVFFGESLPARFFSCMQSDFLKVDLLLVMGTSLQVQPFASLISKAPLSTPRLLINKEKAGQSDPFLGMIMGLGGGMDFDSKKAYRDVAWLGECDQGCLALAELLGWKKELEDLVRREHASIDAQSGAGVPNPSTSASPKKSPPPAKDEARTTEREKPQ
Description: Fluor-de-Lys biochemical sirtuin deacetylation assay, SIRT2. The note with it: dose-response, five doses, side-by-side with AK-1.

In series [6] the target is T2, SIRT1 (Homo sapiens, UniProt Q96EB6).
T2 sequence (Q96EB6 1-747): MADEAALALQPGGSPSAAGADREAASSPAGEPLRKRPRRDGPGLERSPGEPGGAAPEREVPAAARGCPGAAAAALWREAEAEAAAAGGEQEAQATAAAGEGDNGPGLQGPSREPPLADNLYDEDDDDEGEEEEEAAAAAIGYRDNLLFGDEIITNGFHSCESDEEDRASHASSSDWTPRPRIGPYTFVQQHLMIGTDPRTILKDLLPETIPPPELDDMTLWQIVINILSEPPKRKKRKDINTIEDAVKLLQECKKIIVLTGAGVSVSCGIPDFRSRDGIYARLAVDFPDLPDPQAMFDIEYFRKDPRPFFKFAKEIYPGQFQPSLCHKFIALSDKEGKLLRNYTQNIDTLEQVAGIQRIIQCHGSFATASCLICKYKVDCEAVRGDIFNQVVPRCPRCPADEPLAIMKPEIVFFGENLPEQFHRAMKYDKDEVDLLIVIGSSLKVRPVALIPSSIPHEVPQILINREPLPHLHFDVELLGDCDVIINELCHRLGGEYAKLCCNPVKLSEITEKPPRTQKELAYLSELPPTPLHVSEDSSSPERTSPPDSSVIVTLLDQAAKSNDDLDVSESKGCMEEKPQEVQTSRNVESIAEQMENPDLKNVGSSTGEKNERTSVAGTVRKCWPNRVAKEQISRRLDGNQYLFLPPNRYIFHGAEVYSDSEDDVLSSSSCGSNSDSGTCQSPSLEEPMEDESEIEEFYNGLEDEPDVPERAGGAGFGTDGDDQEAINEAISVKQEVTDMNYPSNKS
Description: Fluor-de-Lys biochemical sirtuin deacetylation assay, SIRT1 counter-screen. Conditions: 10 μM counter-screen. On the procedure:
To evaluate the potency and selectivity of the synthesized compounds robust, sensitive, and quantitative, biochemical sirtuin deacetylation assays were employed. (SIRT2 then SIRT1 and SIRT3 for selectivity). Sirtuin activity was assessed using the Fluor-de-Lys assay with recombinant active enzymes SIRT1, SIRT2, and the catalytically active fragment of SIRT3, as described in the literature. […] AK-1 was included as the reference compound with each assay. […] Those compounds also were subjected to SIRT1 and SIRT3 assays to determine sirtuin selectivity.
As discussed above, Tables 1-10 are presented and followed by details relating to the synthesis and characterization of compounds prepared. Inhibition assays and related testing of such compounds are conducted according to well-known literature protocols including those found in Silverman, et al., Biorg. Med. Chem. Lett. 22 (2012) 2789-2793 and the references cited therein, such references and tests incorporated herein by reference.
(Counterscreens check selectivity or assay interference.)

Series [7] relates to α-tubulin K40 acetylation (SIRT2 substrate) in N2a cells. Description: α-tubulin K40 acetylation (Western) in neuronal N2a cells. The format is cell-based. The note with it: N2a cells, 10, 25, 50 μM, 6 h. On the procedure: FIGS. 2A-B. Cell-based assay for evaluating the bioactivity of SIRT2 inhibitors. A) Extracts from neuronal N2a cells treated with 61 and 64 for 6 h were resolved on SDS-PAGE and analyzed by Western analysis using antibodies specific to acetylated α-tubulin, and normalized to GADPH and total α-tubulin (not shown) levels.
as §1

Series [8] relates to α-tubulin K40 acetylation (SIRT2 substrate) in wild type and HD ST141 cell lines. Put plainly: α-tubulin K40 acetylation (Western) in wild type and HD ST141 cell lines. The format is cell-based. On the procedure:
as §1

Structures are written as SMILES.

As for `COc1ccc(N(C)S(=O)(=O)c2cccc(C(=O)Nc3ccc(C#N)cc3)c2)cc1` [Compound 90, N-(4-Cyanophenyl)-3-(N-(4-methoxyphenyl)-N-methylsulfamoyl)benzamide], the toxicity entry in series [1] (25 μM) is “partially toxic”; in series [1] (50 μM), “toxic”; in series [2], “no toxicity was observed”. Also, the “Mean remaining parent NADPH-free (%)” value in series [3] is 106%; in series [4], 90%. Besides, the “Mean remaining parent with NADPH (%)” value in series [3] and in series [4] was 2% in each case.

Consider `CN(c1ccc(S(C)(=O)=O)cc1)S(=O)(=O)c1cccc(C(=O)Nc2ccc(C#N)cc2)c1` [Compound 115, N-(4-Cyanophenyl)-3-(N-methyl-N-(4-(methylsulfonyl)phenyl)sulfamoyl)benzamide], for which the “SIRT2 inhibition potency compared with AK-1” value in series [5] is reported as “significantly more potent”. In addition, the “SIRT1 inhibition” value in series [6] is given as “minimal SIRT1 inhibition”. The “increase in α-tubulin K40 acetylation” value in series [7] and in series [8] was “did not show any significant increase” in each case.
